According to US12077503B2, “Substituted cyclic amides and their use as herbicides” (FMC CORPORATION, priority 2015, dated 2024):

Columns and labels:
Format in all cases: in vivo
[1] = tested on: ragweed (common ragweed, Ambrosia elatior); assay: Test A postemergence; conditions: Ambrosia artemisiifolia, post-emergence, 240 h, postemergence; for pest or weed control at 125 g/ha: 125 g ai/ha, visual injury vs untreated controls after approx. 10 d, 0 = no effect, 100 = complete control, read-out: Ragweed plant response rating (0 to 100 scale); for pest or weed control at 500 g/ha: 500 g ai/ha, 0 to 100 scale, 0 is no effect, 100 is complete control, read-out: Ragweed plant response rating
Outline: (§1)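 Visual injury scores from 0, no effect, to 100, complete control, were assigned versus untreated controls roughly 10 d after treatment in the greenhouse. Test chemicals, formulated with surfactant in a non-phytotoxic solvent, were applied to planted seeds as a preemergence soil spray or postemergence to one- to two-leaf plants 2 to 10 cm tall, in loam–sand soil.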

Kochia (Kochia scoparia) [2] = assay: Test A postemergence; conditions: Bassia scoparia, post-emergence, 240 h, postemergence; for pest or weed control at 125 g/ha: 125 g ai/ha, visual injury vs untreated controls after approx. 10 d, 0 = no effect, 100 = complete control, read-out: Kochia plant response rating (0 to 100 scale); for pest or weed control at 500 g/ha: 500 g ai/ha, 0 to 100 scale, 0 is no effect, 100 is complete control, read-out: Kochia plant response rating
Outline: as §1

[3] = tested on: wheat (Triticum aestivum); assay: Test A postemergence; conditions: Triticum aestivum, post-emergence, 240 h, postemergence; for plant injury at 125 g/ha: 125 g ai/ha, visual injury vs untreated controls after approx. 10 d, 0 = no effect, 100 = complete control, read-out: Wheat plant response rating (0 to 100 scale); for plant injury at 500 g/ha: 500 g ai/ha, 0 to 100 scale, 0 is no effect, 100 is complete control, read-out: Wheat plant response rating
Outline: as §1

[4] = tested on: barnyardgrass (Echinochloa crus-galli); assay: Test A postemergence; conditions: Echinochloa crus-galli, post-emergence, 240 h, postemergence; for pest or weed control at 125 g/ha: 125 g ai/ha, visual injury vs untreated controls after approx. 10 d, 0 = no effect, 100 = complete control, read-out: Barnyardgrass plant response rating (0 to 100 scale); for pest or weed control at 500 g/ha: 500 g ai/ha, 0 to 100 scale, 0 is no effect, 100 is complete control, read-out: Barnyardgrass plant response rating
Outline: as §1

[5] = tested on: blackgrass (Alopecurus myosuroides); assay: Test A postemergence; conditions: Alopecurus myosuroides, post-emergence, 240 h, postemergence; for pest or weed control at 125 g/ha: 125 g ai/ha, visual injury vs untreated controls after approx. 10 d, 0 = no effect, 100 = complete control, read-out: Blackgrass plant response rating (0 to 100 scale); for pest or weed control at 500 g/ha: 500 g ai/ha, 0 to 100 scale, 0 is no effect, 100 is complete control, read-out: Blackgrass plant response rating
Outline: as §1

[6] = tested on: pigweed (Amaranthus retroflexus); assay: Test A postemergence; conditions: Amaranthus retroflexus, post-emergence, 240 h, postemergence; for pest or weed control at 125 g/ha: 125 g ai/ha, visual injury vs untreated controls after approx. 10 d, 0 = no effect, 100 = complete control, read-out: Pigweed plant response rating (0 to 100 scale); for pest or weed control at 500 g/ha: 500 g ai/ha, 0 to 100 scale, 0 is no effect, 100 is complete control, read-out: Pigweed plant response rating
Outline: as §1

[7] = tested on: giant foxtail (Setaria faberii); assay: Test A postemergence; conditions: Setaria faberi, post-emergence, 240 h, postemergence; for pest or weed control at 125 g/ha: 125 g ai/ha, visual injury vs untreated controls after approx. 10 d, 0 = no effect, 100 = complete control, read-out: Foxtail, Giant plant response rating (0 to 100 scale); for pest or weed control at 500 g/ha: 500 g ai/ha, 0 to 100 scale, 0 is no effect, 100 is complete control, read-out: Foxtail, Giant plant response rating
Outline: as §1

[8] = tested on: ryegrass, Italian (Italian ryegrass, Lolium multiflorum); assay: Test A postemergence; conditions: Lolium multiflorum, post-emergence, 240 h, postemergence; for pest or weed control at 125 g/ha: 125 g ai/ha, visual injury vs untreated controls after approx. 10 d, 0 = no effect, 100 = complete control, read-out: Ryegrass, Italian plant response rating (0 to 100 scale); for pest or weed control at 500 g/ha: 500 g ai/ha, 0 to 100 scale, 0 is no effect, 100 is complete control, read-out: Ryegrass, Italian plant response rating
Outline: as §1

[9] = tested on: Galium (catchweed bedstraw, Galium aparine); assay: Test A postemergence; conditions: Galium, post-emergence, 240 h, postemergence; for pest or weed control at 125 g/ha: 125 g ai/ha, visual injury vs untreated controls after approx. 10 d, 0 = no effect, 100 = complete control, read-out: Galium plant response rating (0 to 100 scale); for pest or weed control at 500 g/ha: 500 g ai/ha, 0 to 100 scale, 0 is no effect, 100 is complete control, read-out: Galium plant response rating
Outline: as §1

corn (Zea mays) = assay: Test A postemergence; conditions: Zea mays, post-emergence, 240 h, postemergence; for plant injury at 125 g/ha: 125 g ai/ha, visual injury vs untreated controls after approx. 10 d, 0 = no effect, 100 = complete control, read-out: Corn plant response rating (0 to 100 scale); for plant injury at 500 g/ha: 500 g ai/ha, 0 to 100 scale, 0 is no effect, 100 is complete control, read-out: Corn plant response rating
Outline: as §1

[10] = tested on: ragweed (common ragweed, Ambrosia elatior); assay: Test A preemergence; conditions: Ambrosia artemisiifolia, pre-emergence, 240 h, preemergence, 0 to 100 scale where 0 is no effect and 100 is complete control, read-out: Ragweed plant response rating; for pest or weed control at 125 g/ha: 125 g ai/ha, approx. 10 d; for pest or weed control at 500 g/ha: 500 g ai/ha
Outline: as §1

Kochia (Kochia scoparia) [11] = assay: Test A preemergence; conditions: Bassia scoparia, pre-emergence, 240 h, preemergence, 0 to 100 scale where 0 is no effect and 100 is complete control, read-out: Kochia plant response rating; for pest or weed control at 125 g/ha: 125 g ai/ha, approx. 10 d; for pest or weed control at 500 g/ha: 500 g ai/ha
Outline: as §1

[12] = tested on: barnyardgrass (Echinochloa crus-galli); assay: Test A preemergence; conditions: Echinochloa crus-galli, pre-emergence, 240 h, preemergence, 0 to 100 scale where 0 is no effect and 100 is complete control, read-out: Barnyardgrass plant response rating; for pest or weed control at 125 g/ha: 125 g ai/ha, approx. 10 d; for pest or weed control at 500 g/ha: 500 g ai/ha
Outline: as §1

[13] = tested on: pigweed (Amaranthus retroflexus); assay: Test A preemergence; conditions: Amaranthus retroflexus, pre-emergence, 240 h, preemergence, 0 to 100 scale where 0 is no effect and 100 is complete control, read-out: Pigweed plant response rating; for pest or weed control at 125 g/ha: 125 g ai/ha, approx. 10 d; for pest or weed control at 500 g/ha: 500 g ai/ha
[14] = tested on: giant foxtail (Setaria faberii); assay: Test A preemergence; conditions: Setaria faberi, pre-emergence, 240 h, preemergence, 0 to 100 scale where 0 is no effect and 100 is complete control, read-out: Foxtail, Giant plant response rating; for pest or weed control at 125 g/ha: 125 g ai/ha, approx. 10 d; for pest or weed control at 500 g/ha: 500 g ai/ha
Outline: as §1

[15] = tested on: ryegrass, Italian (Italian ryegrass, Lolium multiflorum); assay: Test A preemergence; conditions: Lolium multiflorum, pre-emergence, 240 h, preemergence, 0 to 100 scale where 0 is no effect and 100 is complete control, read-out: Ryegrass, Italian plant response rating; for pest or weed control at 125 g/ha: 125 g ai/ha, approx. 10 d; for pest or weed control at 500 g/ha: 500 g ai/ha
Outline: as §1

Row | SMILES | pest or weed control at 125 g/ha [1] [%] | pest or weed control at 500 g/ha [1] [%] | pest or weed control at 125 g/ha (Kochia (Kochia scoparia) [2]) [%] | pest or weed control at 500 g/ha (Kochia (Kochia scoparia) [2]) [%] | plant injury at 125 g/ha [3] [%] | plant injury at 500 g/ha [3] [%] | pest or weed control at 125 g/ha [4] [%] | pest or weed control at 500 g/ha [4] [%] | pest or weed control at 125 g/ha [5] [%] | pest or weed control at 500 g/ha [5] [%] | pest or weed control at 125 g/ha [6] [%] | pest or weed control at 500 g/ha [6] [%] | pest or weed control at 125 g/ha [7] [%] | pest or weed control at 500 g/ha [7] [%] | pest or weed control at 125 g/ha [8] [%] | pest or weed control at 500 g/ha [8] [%] | pest or weed control at 125 g/ha [9] [%] | pest or weed control at 500 g/ha [9] [%] | plant injury at 125 g/ha (corn (Zea mays)) [%] | plant injury at 500 g/ha (corn (Zea mays)) [%] | further results
1 | CN1CC[C@H](c2cccc(C(F)(F)F)c2)[C@@H](C(=O)Nc2cccc(F)c2Cl)C1=O [Compound 1158] | 0 | 0 | 0 | 0 | 30 | 50 | 90 | 90 | 20 | 40 | 0 | 0 | 80 | 80 | 30 | 50 | 20 | 30 | 20 | 60 | pest or weed control at 125 g/ha [10]: 0%; pest or weed control at 500 g/ha [10]: 0%; pest or weed control at 125 g/ha (Kochia (Kochia scoparia) [11]): 30%; pest or weed control at 500 g/ha (Kochia (Kochia scoparia) [11]): 30%; pest or weed control at 125 g/ha [12]: 90%; pest or weed control at 500 g/ha [12]: 100%; pest or weed control at 125 g/ha [13]: 0%; pest or weed control at 500 g/ha [13]: 0%; pest or weed control at 125 g/ha [14]: 100%; pest or weed control at 500 g/ha [14]: 100%; pest or weed control at 125 g/ha [15]: 60%; pest or weed control at 500 g/ha [15]: 70%
2 | O=C1NC[C@H](c2cccc(I)c2)[C@H]1C(=O)Nc1ccccc1F [Compound 1160] | 0 | 0 | 0 | 20 | 20 | 50 | 80 | 90 | 0 | 50 | 0 | 0 | 80 | 90 | 20 | 20 | 0 | 60 | 40 | 80 | pest or weed control at 125 g/ha [10]: 0%; pest or weed control at 500 g/ha [10]: 0%; pest or weed control at 125 g/ha (Kochia (Kochia scoparia) [11]): 0%; pest or weed control at 500 g/ha (Kochia (Kochia scoparia) [11]): 50%; pest or weed control at 125 g/ha [12]: 90%; pest or weed control at 500 g/ha [12]: 90%; pest or weed control at 125 g/ha [13]: 0%; pest or weed control at 500 g/ha [13]: 20%; pest or weed control at 125 g/ha [14]: 90%; pest or weed control at 500 g/ha [14]: 90%; pest or weed control at 125 g/ha [15]: 0%; pest or weed control at 500 g/ha [15]: 0%
